Key:
intact mouse aorta = assay: Phenylephrine-induced contractile force of intact mouse aorta (myograph)
Method: A, Typical myograph force trace showing the effect of HS38 on intact mouse aorta contractility. The maximum contractile force of PE-induced contraction was reduced by approximately 30% when HS38 (10 μM) was added five minutes prior to PE addition and by approximately 40% when added ten minutes after PE addition. B, Serum-starved aortic SM cells were treated with SIP (0.25 μM) and HS-38 (±50 μM) for 30 min.
Tissue Preparation and Force Measurements. All protocols and procedures for tissue harvest were carried out according to protocols approved by the Animal Care and Use Committees at the University of Virginia and Duke University, Helical strips of mouse aorta or strips of rabbit ileum were dissected, (˜400 μm wide, 2 mm long) and mounted between two tungsten hooks on a bubble plate for force measurements (Horiuti (1988) J. Physiol.-London 398, 131-148). […] Intact strips of mouse abdominal aorta were challenged with phenylephrine following pretreatment with HS38 or diluent, DMSO or HS38 and DMSO were added after maximal phenylephrine-induced force was achieved and force output measured. […] For Ca^2+ activating solutions, EGTA (10 mM) and a calculated amount of Ca-methanesulfonate was added to give the desired free Ca^2+ concentration ((Horiuti (1988) J. Physiol.-London 398, 131-148).

[1] = tested on: rat caudal arterial smooth muscle (RTA); assay: Calyculin A-induced contraction of rat caudal arterial smooth muscle (RTA) strips
Method: Tissue preparation and Force Measurement for RTA smooth muscle: Caudal arteries were removed from male Sprague-Dawley rats (300-350 g) that had been anesthetized and euthanized according to protocols approved by the University of Calgary Animal Care and Use Committee. The arteries were cleaned of excess adventitia, de-endothelialized and cut into helical strips (1.5 mm×6 mm). Muscle strips were mounted on a Grass isometric force transducer (FT03C), and force was recorded. Intact tissues were treated with calyculin A (CLa, […]). At selected sampling points, muscle strips were flash-frozen in 10% (w/v) TCA, 10 mM DTT in acetone followed by 3×10 s washes in 10 mM DTT in acetone. Tissues were then lyophilized overnight. Protein was extracted from each arterial strip by incubation (16 h, 5° C.) in 0.5 mL of SDS-PAGE sample buffer.
In this case, calyculin A (CLa, 10^−7M)-induced contractions were used since inhibition of myosin phosphatase activity in RTA unmasks endogenous Ca^2+-independent LC20 kinase activities, including ZIPK. Experiments were performed with addition of inhibitors for ROK (HA-1152, 10^−6 M; GSK429286A, 10^−5M) in combination with HS-38. Combining ROK and ZIPK inhibitors had no effect on Ca^2+-sensitization (force generation or downstream ZIPK target phosphorylation).
Data were collected for RTA smooth muscle contraction in the presence and absence of HS-38, including measurements of contractile force development, and the concentration dependency of these effects. […] The t1/2 max value is defined as the time required for contractile force to reach 50% of maximal tone.
The latency period, i.e. the time from addition of calyculin A to the onset of contraction, and the half-time from the initiation of contraction to the plateau of the contractile response, were determined, in addition to the t1/2 values (the half-time from addition of calyculin A to the plateau of the contractile response) determined previously, in the absence and presence of HS-38. […] On the other hand, the steady-state level of force induced by calyculin A was unaffected by ZIPK inhibition. The results support the ability of HS38 to suppress the initiation and rate of contractile tone without altering the total force potential of the muscle.

[2] = tested on: posterior cerebral arteries of spontaneous hypertensive rat (SHR); assay: Pressure myography of posterior cerebral arteries of SHR, enhanced myogenic tone; conditions: HS-38 10 μM, 10-wk SHR
Excerpt: Data are means (n=2 animals) for size-matched vessels from 10-wk SHR rats. The average maximum passive diameters at 120 mmHg were 280 μm. Representative pressure-induced changes in arteriolar diameter (A) as well as mean diameter-pressure relationships (B) and active myogenic constriction (C) are shown.
Posterior cerebral arteries (PCAs) from male Sprague-Dawley rats were isolated and mounted/cannulated for pressure myography. Briefly, 2-3 mm arterial segments are mounted across glass canuli in an arteriograph chamber attached to a pressure myograph (Living Systems, Burlington, Vt. USA) and tied in place using silk suture. Endothelial cells are removed by passing a stream of air bubbles through the vessel lumen (this methodology was confirmed by loss of dilatory response to acetylcholine). […] After this, arteriole myogenic responses (i.e., vessel diameter) to increasing luminal pressure were monitored ex vivo in the absence or presence of HS-38. […] This series of steps is repeated in normal Krebs buffer, with the addition of ZIPK inhibitor (i.e., 10 μM HS-38) and finally in Ca^2+ free Krebs (same constitution as normal Krebs with no CaCl2 and added EGTA (2 mM), Data are collected as average vessel diameter over stable region of each step and expressed as a percentage of the maximal passive vessel diameter (120 mmHg, 0Ca^2+) to standardize for variation in size of […]. […]

CC(Sc1nc2c(cnn2-c2cccc(Cl)c2)c(=O)[nH]1)C(N)=O (stereo not shown) [HS38]
reduction of maximum contractile force of PE-induced contraction (intact mouse aorta; HS38 10 μM added five minutes prior to PE addition): approximately 30%
reduction of maximum contractile force of PE-induced contraction (intact mouse aorta; HS38 10 μM added ten minutes after PE addition): approximately 40%
contractile force during the Ca2+ sensitization process ([1]; calyculin A): concentration-dependent attenuation
t1/2max; time to reach 50% of maximal contractile force ([1]; calyculin A 10^−7 M, increasing concentrations of HS-38): concentration-dependent increases
Latency (s) ([1]; calyculin A with HS-38, n = 28, mean ± SEM): *654.7 ± 60.6 s
% KCl contraction ([1]; steady-state force, calyculin A with HS-38, n = 28, mean ± SEM): **161.7 ± 8.4%
enhanced myogenic tone at low basal luminal pressures [2]: can be attenuated
